From patent publication US8349835B2, “Aromatic ring fused triazine derivatives and uses thereof” (Shenyang Pharmaceutical University, priority 2008, dated 2013) come the findings set out here.

The subject of experiment [1] is Microvascular Endothelial Cells (MVEC). Kind of experiment: MTT growth inhibition of MVEC. Format: cell-based. As to conditions: Endothelial cell, 96 h, 4 days culture with drug, read-out: IG50 on inhibiting growth of MVEC. As to the method:
In Vitro Anti-Tumor Activity Test
Put cell suspension into centrifugal tubes with a pipette under sterile conditions, then the cell suspension was centrifuged for 3 minutes at 1300 rpm. Discarded the supernatant lightly and added fresh culture medium. Mixed the cells by pipetting, then transferred the cells into culture flasks, and put them into the CO2 incubator. Changed the culture medium once after 24 hours.
Human prostate cancer cells (DU145, PC-3) were cultured in a medium containing RPMI1640 basic medium supplemented with 10% heat-inactivated FBS, 100 IU/mL penicillin, 100 μg/mL streptomycin and 1 mmol/L L-glutamine. Human breast carcinoma cells (T47D, MDA-MB231) were cultured in a medium containing RPM11640 basic medium supplemented with 10% heat-inactivated FBS, 5 μg/mL insulin, 100 IU/mL penicillin, 100 μg/mL streptomycin and 1 mmol/L L-glutamine. Human breast carcinoma cells (MCF-7) were cultured in a medium containing DMEM basic medium supplemented with 10% heat-inactivated FBS, 5 μg/mL insulin, 100 IU/mL penicillin, 100 μg/mL streptomycin and […]. Murine Lewis lung cancer cells (LL/2), murine melanoma cells (B16FD) and Microvascular Endothelial Cells (MVEC) were cultured in a medium containing DMEM basic medium supplemented with 10% heat-inactivated FBS, 4.5 g/L glucose, 1.5 g/L NaHCO3, 100 IU/mL penicillin, 100 μg/mL streptomycin and 4 mmol/L L-glutamine. All these cell lines were incubated at 37° C. biochemical incubator with 5% CO2 saturated humidity.
After resuscitation, the cells were passed for 2-3 generations till they became stable, then they were used for the experiments. Each passage was based on the standard that all cells were spread over the bottoms of culture flasks.
Cells were digested off from the bottoms of culture flasks with trypsin (0.25%). The cell dissociation buffer was transferred into centrifuge tubes, added medium to stop the digestion, and centrifuged for 3 minutes at 1300 rpm. Discarded the supernatant lightly and added fresh culture medium (5 mL). Mixed the cells by pipetting, then added 10 μL of the cell suspension into the cell counting plate, and adjusted the cell concentration to 2×10^4 cells/mL. Added 100 μL of the cell suspension to all wells on the 96 well plates, except A1 well as the blank control. Put the plates into the biochemical incubator for 24 hours and to make sure the cells grew along the walls.
The drugs were dissolved in 80 mmol/L DMSO first, and then diluted the drugs with ethanol to 8 mmol/L. The solution was further diluted with the culture medium to different concentrations as 160 μmol/L, 120 μmol/L, 80 μmol/L, 40 μmol/L, 20 μmol/L and 10 μmol/L. Added 100 μL of the drug solution to each well on the 96 well plates. Therefore, the final concentrations of the drugs that were added to the cells were 80 μmol/L, 40 μmol/L, 20 μmol/L, 10 μmol/L and 5 μmol/L, and each concentration were repeated in three parallel wells. Put the culture plates into the biochemical incubator to culture continuously for 4 days.
Added 50 μL MTT liquids (2 mg/mL) into each well, put the culture plates into the biochemical incubator for 4 h, discarded MTT liquids (TCC), added 200 μL DMSO, then oscillated for 10 minutes on the magnetic oscillator to make sure that the survived cells and the reaction product of MTT were fully dissolved. Detected and recorded the absorbance (OD) values of each well at the wavelength of 570 nm using the microplate reader. The OD values of cells without tested drugs were used as control. The cell growth inhibition rates under each drug concentration were calculated by the following formula. […] Inhibition rate of growth(%)=(1−The absorbance(OD)of cells with tested drugs/The absorbance(OD)of the blank control group)×100%
The absorbance (OD) of cells with tested drugs: OD value is measured with the test drugs.
The absorbance (OD) of the blank control group: OD value is measured without the test drugs. […]

The next experiment has as its target VEGFR-2 (Homo sapiens, UniProt P35968). Kind of experiment: VEGFR-2 inhibition rate test (kinase assay kit, colorimetric ELISA). As to conditions: concentration not given.

VEGFR-2, sequence (P35968 20-1356): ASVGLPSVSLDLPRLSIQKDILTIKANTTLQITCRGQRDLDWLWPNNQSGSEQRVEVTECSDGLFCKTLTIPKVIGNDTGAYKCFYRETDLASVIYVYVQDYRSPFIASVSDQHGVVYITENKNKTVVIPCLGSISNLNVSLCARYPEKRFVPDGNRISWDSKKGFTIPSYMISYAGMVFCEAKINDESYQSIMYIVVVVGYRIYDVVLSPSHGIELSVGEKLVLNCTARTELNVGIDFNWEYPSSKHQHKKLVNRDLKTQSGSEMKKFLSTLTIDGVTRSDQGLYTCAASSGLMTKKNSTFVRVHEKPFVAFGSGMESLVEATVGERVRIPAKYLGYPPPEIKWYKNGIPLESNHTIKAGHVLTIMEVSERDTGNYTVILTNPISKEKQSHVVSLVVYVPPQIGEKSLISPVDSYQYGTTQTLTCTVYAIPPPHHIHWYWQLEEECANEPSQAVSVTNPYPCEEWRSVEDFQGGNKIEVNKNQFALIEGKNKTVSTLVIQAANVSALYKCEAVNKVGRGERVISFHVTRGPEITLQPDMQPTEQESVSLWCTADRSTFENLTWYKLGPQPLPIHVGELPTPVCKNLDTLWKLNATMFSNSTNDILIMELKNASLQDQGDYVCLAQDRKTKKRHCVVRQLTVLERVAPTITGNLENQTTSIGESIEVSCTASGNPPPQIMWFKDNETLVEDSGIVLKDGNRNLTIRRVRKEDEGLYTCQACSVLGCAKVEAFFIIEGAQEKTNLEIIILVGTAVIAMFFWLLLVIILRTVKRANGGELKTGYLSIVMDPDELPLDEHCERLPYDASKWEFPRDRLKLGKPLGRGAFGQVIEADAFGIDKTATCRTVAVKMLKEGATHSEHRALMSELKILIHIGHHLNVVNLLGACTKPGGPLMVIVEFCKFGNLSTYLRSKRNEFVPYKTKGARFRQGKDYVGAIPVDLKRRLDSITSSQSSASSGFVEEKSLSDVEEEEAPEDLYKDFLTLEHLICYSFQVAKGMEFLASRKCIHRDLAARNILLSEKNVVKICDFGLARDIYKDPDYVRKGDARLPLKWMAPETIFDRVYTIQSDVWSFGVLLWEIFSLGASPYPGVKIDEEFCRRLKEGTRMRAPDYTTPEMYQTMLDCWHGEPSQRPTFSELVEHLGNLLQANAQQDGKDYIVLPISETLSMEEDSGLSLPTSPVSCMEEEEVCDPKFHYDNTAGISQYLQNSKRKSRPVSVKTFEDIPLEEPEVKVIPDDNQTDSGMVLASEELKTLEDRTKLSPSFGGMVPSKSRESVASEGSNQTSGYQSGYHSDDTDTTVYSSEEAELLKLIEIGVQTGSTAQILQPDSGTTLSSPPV

With `CCCCOc1cc2nnnc(Nc3cccc(Br)c3)c2cc1OC` [Example 25, 6-methoxy-7-n-butoxy-4-(3-bromoanilino)-benzo[d][1,2,3]triazine], the IC50 in experiment [1] was determined as 16.8 µM. Also, the “Kinase inhibition rate (VEGFR-2)” value on VEGFR-2 is 5.61.
Consider `CCOc1cc2nnnc(Nc3ccc(Cl)c(Cl)c3)c2cc1OC` [Example 32, 6-methoxy-7-ethoxy-4-(3,4-dichloroanilino)-benzo[d][1,2,3]triazine], for which the IC50 in experiment [1] was 14.3 µM.
Same read-out and setting: in the case of `CCOc1cc2nnnc(Nc3ccc(Cl)cc3)c2cc1OC` [Example 33, 6-methoxy-7-ethoxy-4-(4-chloroanilino)-benzo[d][1,2,3]triazine] it was 26.5 µM.
Regarding `CCCCCOc1cc2nnnc(Nc3ccc(Cl)c(Cl)c3)c2cc1OC` [Example 48, 6-methoxy-7-pentyloxy-4-(3,4-dichloroanilino)-benzo[d][1,2,3]triazine], in experiment [1], the IC50 worked out at 16.9 µM. In addition, on VEGFR-2, the “Kinase inhibition rate (VEGFR-2)” value is −21.65.
For `CCCCCOc1cc2nnnc(Nc3ccc(Cl)cc3)c2cc1OC` [Example 49, 6-methoxy-7-pentyloxy-4-(4-chloroanilino)-benzo[d][1,2,3]triazine], the IC50 in experiment [1] came out at 25.3 µM.
In the case of `CCCCCOc1cc2nnnc(Nc3ccc(F)c(Cl)c3)c2cc1OC` [Example 55, 6-methoxy-7-pentyloxy-4-(3-chloro-4-fluoroanilino)benzo[d][1,2,3]triazine], the IC50 in experiment [1] worked out at 14.8 µM. Besides, the “Kinase inhibition rate (VEGFR-2)” value on VEGFR-2 is recorded as −0.53.
For `CCCCCOc1cc2nnnc(Nc3ccc(F)c(C(F)(F)F)c3)c2cc1OC` [Example 56, 6-methoxy-7-pentyloxy-4-(3-trifluoromethyl-4-fluoroanilino)-benzo[d][1,2,3]triazine], the IC50 in experiment [1] stood at 16.3 µM. Besides, on VEGFR-2, the “Kinase inhibition rate (VEGFR-2)” value was −3.74.
For `COc1cc2c(Nc3cc(Cl)cc(Cl)c3)nnnc2cc1OCCCCl` [Example 63, 6-methoxy-7-chloropropoxy-4-(3,5-dichloroanilino)-benzo[d][1,2,3]triazine] the same measures were 28.8 µM and −9.97.
For the compound `COc1cc2c(Nc3ccc(Cl)c(Cl)c3)nnnc2cc1OCCCCl` [Example 65, 6-methoxy-7-chloropropoxy-4-(3,4-dichloroanilino)-benzo[d][1,2,3]triazine], the IC50 in experiment [1] was found to be 11 µM.
Take `COc1cc2c(Nc3ccc(Cl)cc3)nnnc2cc1OCCCCl` [Example 66, 6-methoxy-7-chloropropoxy-4-(4-chloroanilino)-benzo[d][1,2,3]triazine]: the IC50 in experiment [1] was determined as 38.6 µM. Moreover, the “Kinase inhibition rate (VEGFR-2)” value at VEGFR-2 was −10.15.
On to `COc1cc2c(Nc3cccc(OC(F)(F)F)c3)nnnc2cc1OCCCCl` [Example 69, 6-methoxy-7-chloropropoxy-4-(3-trifluoromethoxyanilino)-benzo[d][1,2,3]triazine], for which the IC50 in experiment [1] was determined as 24.9 µM. Also, the “Kinase inhibition rate (VEGFR-2)” value on VEGFR-2 was −14.75.
For `COc1cc2c(Nc3ccc(F)c(C(F)(F)F)c3)nnnc2cc1OCCCCl` [Example 73, 6-methoxy-7-chloropropoxy-4-(3-trifluoromethyl-4-fluoroanilino)-benzo[d][1,2,3]triazine] the same measures were 15.2 µM and 2.40.
Taken in the same sequence, the figures for `Fc1ccc(Nc2nnnc3ccc(Cl)nc23)cc1Cl` [Example 89, 6-chloro-4-(3-chloro-4-fluoroanilino)pyrido[3,2-d][1,2,3]triazine] were 9.85 µM and −0.25.
